Measured values reported in ChEMBL document CHEMBL3120096 (J Med Chem, 2014).
Converted amounts (≈) assume the structure as drawn.

Columns and labels:
[1] = Clearance in human hepatocytes at 1 uM by LC-MS/MS analysis; assay type: ADME, cell-based, Hepatocyte
[2] = target: Ribosomal protein S6 kinase alpha-3 (Homo sapiens) (UniProt P51812); experiment: Inhibition of RSK2 (unknown origin) at 0.1 uM relative to control
[3] = Half life in cynomolgus monkey at 0.5 mg/kg, iv; assay type: ADME, organism-based, Macaca fascicularis; parameters: dose 0.5 mg/kg, route intravenous; settings: in vivo
[4] = system: Mus musculus; experiment: In vivo inhibition of human LRRK2 G2019S Parkinson's disease mutant expressed in BAC mouse assessed as inhibition of autophosphorylation at Ser1292 in brain at 10 to 50 mg/kg, ip after 1 to 6 hrs; assay type: functional, organism-based; parameters: dose 10-50 mg/kg, route intraperitoneal
[5] = system: Cynomolgus monkey; experiment: Unbound clearance in cynomolgus monkey at 1 mg/kg, po and 0.5 mg/kg, iv; assay type: ADME, organism-based, Macaca fascicularis; settings: in vivo
[6] = target: T1, Dual specificity protein kinase TTK (Homo sapiens, UniProt P33981); experiment: Inhibition of TTK (unknown origin)
T1 sequence (P33981 whole entry): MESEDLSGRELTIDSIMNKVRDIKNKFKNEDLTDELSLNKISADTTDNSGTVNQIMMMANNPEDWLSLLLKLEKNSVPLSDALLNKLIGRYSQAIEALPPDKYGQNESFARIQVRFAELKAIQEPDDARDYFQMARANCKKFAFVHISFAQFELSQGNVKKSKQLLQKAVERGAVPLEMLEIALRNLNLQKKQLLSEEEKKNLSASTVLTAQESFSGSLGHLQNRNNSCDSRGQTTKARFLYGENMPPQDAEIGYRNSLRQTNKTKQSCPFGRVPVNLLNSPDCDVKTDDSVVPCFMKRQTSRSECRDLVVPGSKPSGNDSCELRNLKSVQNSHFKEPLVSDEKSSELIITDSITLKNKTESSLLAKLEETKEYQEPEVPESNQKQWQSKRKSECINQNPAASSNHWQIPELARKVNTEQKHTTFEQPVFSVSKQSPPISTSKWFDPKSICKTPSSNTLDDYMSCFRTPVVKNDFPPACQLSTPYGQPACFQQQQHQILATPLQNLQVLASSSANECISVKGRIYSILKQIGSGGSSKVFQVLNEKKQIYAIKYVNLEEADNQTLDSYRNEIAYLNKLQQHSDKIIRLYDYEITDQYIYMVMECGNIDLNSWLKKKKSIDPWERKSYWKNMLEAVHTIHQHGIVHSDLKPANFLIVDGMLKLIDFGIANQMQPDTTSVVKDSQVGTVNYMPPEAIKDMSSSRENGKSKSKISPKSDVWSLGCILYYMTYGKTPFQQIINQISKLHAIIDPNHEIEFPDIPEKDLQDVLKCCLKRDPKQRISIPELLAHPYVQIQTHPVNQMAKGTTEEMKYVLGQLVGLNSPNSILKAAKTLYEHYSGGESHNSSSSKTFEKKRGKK

[7] = Clearance in Sprague-Dawley rat at 1 mg/kg, po and 0.5 mg/kg, iv; assay type: ADME, organism-based; settings: in vivo
[8] = target: Ribosomal protein S6 kinase alpha-6 (Homo sapiens) (UniProt Q9UK32); experiment: Inhibition of RSK4 (unknown origin) at 0.1 uM relative to control
[9] = system: Liver microsome; experiment: Drug metabolism in human liver microsomes assessed as glucuronidated parent compound level after 3 hrs; assay type: ADME
[10] = target: Aurora kinase B (Homo sapiens) (UniProt Q96GD4); experiment: Inhibition of aurora-B (unknown origin) at 0.1 uM relative to control
Chain of Aurora kinase B (Homo sapiens) (Q96GD4 whole entry): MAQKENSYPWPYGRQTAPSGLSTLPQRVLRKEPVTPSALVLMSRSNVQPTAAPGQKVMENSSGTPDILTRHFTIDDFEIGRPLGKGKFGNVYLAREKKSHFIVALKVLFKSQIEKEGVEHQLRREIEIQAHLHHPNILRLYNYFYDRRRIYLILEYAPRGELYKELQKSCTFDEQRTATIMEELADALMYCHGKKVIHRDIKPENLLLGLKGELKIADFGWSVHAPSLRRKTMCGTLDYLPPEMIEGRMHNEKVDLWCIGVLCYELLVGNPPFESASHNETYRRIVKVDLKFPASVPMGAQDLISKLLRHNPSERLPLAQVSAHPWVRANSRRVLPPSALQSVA

[11] = system: Hepatocyte; experiment: Drug metabolism in human hepatocytes assessed as glucuronidated parent compound level after 3 hrs; assay type: ADME, cell-based
[12] = target: Ribosomal protein S6 kinase alpha-2 (Homo sapiens) (UniProt Q15349); experiment: Inhibition of RSK3 (unknown origin) at 0.1 uM relative to control
Chain of Ribosomal protein S6 kinase alpha-2 (Homo sapiens) (Q15349 whole entry): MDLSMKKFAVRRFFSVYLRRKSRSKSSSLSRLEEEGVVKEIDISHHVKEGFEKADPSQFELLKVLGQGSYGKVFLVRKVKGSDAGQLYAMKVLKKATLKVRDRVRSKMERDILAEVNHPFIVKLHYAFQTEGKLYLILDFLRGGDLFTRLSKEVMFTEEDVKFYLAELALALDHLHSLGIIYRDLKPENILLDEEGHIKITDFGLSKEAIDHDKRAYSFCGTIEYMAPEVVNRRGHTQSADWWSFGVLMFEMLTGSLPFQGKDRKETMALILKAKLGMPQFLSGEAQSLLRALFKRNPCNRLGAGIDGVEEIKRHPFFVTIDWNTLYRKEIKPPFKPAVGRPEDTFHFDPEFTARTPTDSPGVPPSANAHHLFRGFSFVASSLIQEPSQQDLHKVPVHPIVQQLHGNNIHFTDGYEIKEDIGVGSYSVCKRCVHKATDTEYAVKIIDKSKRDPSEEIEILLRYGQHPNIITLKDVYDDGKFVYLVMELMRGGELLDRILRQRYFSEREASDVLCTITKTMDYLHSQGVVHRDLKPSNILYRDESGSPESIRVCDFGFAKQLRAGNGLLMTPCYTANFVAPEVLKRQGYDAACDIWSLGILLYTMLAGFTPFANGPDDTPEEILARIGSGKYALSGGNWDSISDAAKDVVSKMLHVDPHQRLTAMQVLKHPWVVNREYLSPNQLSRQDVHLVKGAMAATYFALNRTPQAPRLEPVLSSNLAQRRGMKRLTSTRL

[13] = Thermodynamic solubility of the crystalline form of compound at pH 7.4; assay type: physicochemical; settings: read-out: Therm_solubility
[14] = target: T2, Leucine-rich repeat serine/threonine-protein kinase 2 (Homo sapiens, UniProt Q5S007); experiment: Inhibition of LRRK2 (unknown origin)
T2 sequence (Q5S007 whole entry): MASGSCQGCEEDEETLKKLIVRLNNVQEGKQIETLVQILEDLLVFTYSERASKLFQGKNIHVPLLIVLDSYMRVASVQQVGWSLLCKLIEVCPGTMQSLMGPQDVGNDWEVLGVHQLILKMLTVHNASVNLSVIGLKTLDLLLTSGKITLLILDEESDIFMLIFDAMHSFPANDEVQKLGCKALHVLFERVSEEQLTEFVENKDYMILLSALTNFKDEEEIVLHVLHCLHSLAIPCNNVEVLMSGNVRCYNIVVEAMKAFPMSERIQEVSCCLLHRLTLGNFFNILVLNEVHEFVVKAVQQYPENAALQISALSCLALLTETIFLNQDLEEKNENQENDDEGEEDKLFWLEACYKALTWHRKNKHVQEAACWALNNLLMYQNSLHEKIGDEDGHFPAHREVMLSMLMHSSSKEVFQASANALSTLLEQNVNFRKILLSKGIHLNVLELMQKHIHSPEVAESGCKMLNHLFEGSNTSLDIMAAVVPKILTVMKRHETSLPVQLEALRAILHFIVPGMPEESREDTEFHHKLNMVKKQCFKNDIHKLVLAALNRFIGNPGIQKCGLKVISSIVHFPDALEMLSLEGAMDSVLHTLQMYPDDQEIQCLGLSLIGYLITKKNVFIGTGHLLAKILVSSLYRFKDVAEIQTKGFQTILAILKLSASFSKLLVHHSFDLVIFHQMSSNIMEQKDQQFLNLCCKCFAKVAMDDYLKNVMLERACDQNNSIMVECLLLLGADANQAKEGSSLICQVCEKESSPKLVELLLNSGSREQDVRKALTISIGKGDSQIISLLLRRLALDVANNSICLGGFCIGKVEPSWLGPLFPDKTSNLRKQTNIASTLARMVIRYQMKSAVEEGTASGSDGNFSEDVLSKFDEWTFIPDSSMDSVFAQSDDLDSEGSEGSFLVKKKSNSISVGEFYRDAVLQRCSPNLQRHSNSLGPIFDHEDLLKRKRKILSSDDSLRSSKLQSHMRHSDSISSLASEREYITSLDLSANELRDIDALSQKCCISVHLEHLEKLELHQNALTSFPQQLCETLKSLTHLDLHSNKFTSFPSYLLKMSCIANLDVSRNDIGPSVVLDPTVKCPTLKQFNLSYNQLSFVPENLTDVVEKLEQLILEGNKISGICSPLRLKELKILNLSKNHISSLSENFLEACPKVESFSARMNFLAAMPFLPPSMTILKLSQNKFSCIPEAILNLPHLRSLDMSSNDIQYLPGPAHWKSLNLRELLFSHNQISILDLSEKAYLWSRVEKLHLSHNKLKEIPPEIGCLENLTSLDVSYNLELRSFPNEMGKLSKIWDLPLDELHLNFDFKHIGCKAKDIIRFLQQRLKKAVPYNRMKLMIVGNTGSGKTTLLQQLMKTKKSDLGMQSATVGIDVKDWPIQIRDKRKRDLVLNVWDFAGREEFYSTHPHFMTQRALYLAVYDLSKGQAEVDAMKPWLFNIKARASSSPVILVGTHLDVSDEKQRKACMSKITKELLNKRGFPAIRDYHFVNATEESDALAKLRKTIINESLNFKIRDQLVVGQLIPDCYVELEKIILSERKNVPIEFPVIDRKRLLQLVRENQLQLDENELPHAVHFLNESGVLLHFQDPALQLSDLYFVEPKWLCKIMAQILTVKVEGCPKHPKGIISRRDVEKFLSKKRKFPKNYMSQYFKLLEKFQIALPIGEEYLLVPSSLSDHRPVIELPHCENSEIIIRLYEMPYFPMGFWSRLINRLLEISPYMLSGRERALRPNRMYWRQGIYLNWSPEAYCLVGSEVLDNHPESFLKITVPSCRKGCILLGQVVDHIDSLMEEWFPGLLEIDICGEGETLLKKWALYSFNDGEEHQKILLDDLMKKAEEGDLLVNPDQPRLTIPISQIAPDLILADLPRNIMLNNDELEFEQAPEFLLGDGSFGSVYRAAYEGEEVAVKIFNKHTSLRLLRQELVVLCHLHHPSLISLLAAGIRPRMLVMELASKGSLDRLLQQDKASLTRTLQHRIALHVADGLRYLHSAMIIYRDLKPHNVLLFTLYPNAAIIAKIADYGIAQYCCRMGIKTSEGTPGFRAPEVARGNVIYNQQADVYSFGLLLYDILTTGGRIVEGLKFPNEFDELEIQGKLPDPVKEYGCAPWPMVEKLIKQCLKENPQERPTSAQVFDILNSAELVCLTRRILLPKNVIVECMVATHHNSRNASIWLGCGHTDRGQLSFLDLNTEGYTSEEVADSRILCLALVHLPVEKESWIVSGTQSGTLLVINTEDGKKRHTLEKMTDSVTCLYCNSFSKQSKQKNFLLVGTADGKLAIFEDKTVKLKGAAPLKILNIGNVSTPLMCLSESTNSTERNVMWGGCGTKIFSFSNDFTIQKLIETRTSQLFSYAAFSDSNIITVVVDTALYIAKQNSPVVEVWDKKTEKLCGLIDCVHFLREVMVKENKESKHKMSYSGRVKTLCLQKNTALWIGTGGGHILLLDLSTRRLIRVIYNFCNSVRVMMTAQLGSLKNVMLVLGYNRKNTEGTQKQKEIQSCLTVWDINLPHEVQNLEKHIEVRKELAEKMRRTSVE

[15] = Oral bioavailability in cynomolgus monkey at 1 mg/kg; assay type: ADME, organism-based, Macaca fascicularis; settings: in vivo
[16] = Oral bioavailability in Sprague-Dawley rat at 50 mg/kg; assay type: ADME, organism-based; settings: in vivo
[17] = Clearance in cynomolgus monkey at 1 mg/kg, po and 0.5 mg/kg, iv; assay type: ADME, organism-based, Macaca fascicularis; settings: in vivo
[18] = Ratio of unbound drug level in brain to plasma in Sprague-Dawley rat; assay type: ADME, organism-based
[19] = target: T3, Cytochrome P450 1A2 (Homo sapiens, UniProt P05177); experiment: Reversible inhibition of CYP1A2 in human liver microsomes using phenacetin as substrate by mass spectrophotometric analysis; assay type: ADME
T3 sequence (P05177 whole entry): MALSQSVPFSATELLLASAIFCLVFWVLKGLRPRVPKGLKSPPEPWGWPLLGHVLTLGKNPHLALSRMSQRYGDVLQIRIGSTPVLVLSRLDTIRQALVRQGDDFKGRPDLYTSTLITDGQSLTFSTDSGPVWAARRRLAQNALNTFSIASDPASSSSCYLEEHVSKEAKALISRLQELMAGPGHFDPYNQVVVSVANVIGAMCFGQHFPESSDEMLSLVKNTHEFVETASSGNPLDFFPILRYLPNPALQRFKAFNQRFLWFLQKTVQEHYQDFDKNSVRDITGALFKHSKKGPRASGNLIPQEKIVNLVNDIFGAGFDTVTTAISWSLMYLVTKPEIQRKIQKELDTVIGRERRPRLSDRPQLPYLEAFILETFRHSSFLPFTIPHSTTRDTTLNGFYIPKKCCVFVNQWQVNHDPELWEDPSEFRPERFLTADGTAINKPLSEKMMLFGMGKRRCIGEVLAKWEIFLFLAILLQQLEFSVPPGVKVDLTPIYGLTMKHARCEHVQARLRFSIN

[20] = target: T2, Leucine-rich repeat serine/threonine-protein kinase 2; experiment: Inhibition of LRRK2 (unknown origin) phosphorylation by cell-based assay
[21] = target: T4, Cytochrome P450 2B6 (Homo sapiens, UniProt P20813); experiment: Induction of CYP2B6 in human hepatocytes; assay type: ADME, cell-based, Hepatocyte
T4 sequence (P20813 whole entry): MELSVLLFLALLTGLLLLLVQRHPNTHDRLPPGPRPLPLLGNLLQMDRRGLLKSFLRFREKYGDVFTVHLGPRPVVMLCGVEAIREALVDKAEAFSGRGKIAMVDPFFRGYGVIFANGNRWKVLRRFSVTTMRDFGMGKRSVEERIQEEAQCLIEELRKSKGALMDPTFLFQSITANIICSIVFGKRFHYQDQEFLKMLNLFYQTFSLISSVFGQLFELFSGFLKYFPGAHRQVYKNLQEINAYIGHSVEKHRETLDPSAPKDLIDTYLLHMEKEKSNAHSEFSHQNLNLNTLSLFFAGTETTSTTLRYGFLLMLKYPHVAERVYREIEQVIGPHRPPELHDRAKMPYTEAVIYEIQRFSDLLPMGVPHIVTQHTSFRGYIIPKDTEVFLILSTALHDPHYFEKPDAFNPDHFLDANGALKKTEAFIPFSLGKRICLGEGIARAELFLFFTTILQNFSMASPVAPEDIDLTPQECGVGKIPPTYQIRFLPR

[22] = target: Cytochrome P450 3A4 (Homo sapiens, UniProt P08684); experiment: Induction of CYP3A4 in human hepatocytes; assay type: ADME, cell-based, Hepatocyte
Chain of Cytochrome P450 3A4 (P08684 whole entry): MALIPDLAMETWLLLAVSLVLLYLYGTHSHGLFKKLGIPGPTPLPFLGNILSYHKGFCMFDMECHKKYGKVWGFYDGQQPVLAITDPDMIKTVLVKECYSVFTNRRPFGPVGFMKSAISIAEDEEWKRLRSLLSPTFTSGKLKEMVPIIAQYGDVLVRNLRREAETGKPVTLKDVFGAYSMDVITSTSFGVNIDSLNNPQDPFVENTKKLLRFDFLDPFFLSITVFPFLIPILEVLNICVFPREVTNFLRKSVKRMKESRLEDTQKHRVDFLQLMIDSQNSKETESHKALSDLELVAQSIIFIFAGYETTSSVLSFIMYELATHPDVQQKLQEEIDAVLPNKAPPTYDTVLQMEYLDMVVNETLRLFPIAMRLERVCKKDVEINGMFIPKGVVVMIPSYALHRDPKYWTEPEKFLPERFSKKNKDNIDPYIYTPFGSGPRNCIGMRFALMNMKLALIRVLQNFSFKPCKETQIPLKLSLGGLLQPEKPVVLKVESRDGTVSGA

[23] = Clearance in rat hepatocytes at 1 uM by LC-MS/MS analysis; assay type: ADME, cell-based, Hepatocyte
[24] = target: T3, Cytochrome P450 1A2; experiment: Induction of CYP1A2 in human hepatocytes; assay type: ADME, cell-based, Hepatocyte
[25] = Plasma protein binding in cynomolgus monkey at 5 uM after 4 hrs by equilibrium dialysis technique; assay type: ADME, cell-free, Macaca fascicularis; settings: read-out: PPB (converted)
[26] = system: Rattus norvegicus; experiment: Unbound clearance in Sprague-Dawley rat at 1 mg/kg, po and 0.5 mg/kg, iv; assay type: ADME, organism-based; settings: in vivo
[27] = species on record: Homo sapiens; experiment: Selectivity ratio of Ki for JAK2 (unknown origin) to Ki for LRRK2 (unknown origin)
[28] = Oral bioavailability in cynomolgus monkey at 1 to 20 mg/kg; assay type: ADME, organism-based, Macaca fascicularis; settings: in vivo
[29] = system: Liver microsome; experiment: Drug metabolism in human liver microsomes in presence of glutathione; assay type: ADME
[30] = system: Liver microsome; experiment: Drug metabolism in human liver microsomes in presence of methoxyamine; assay type: ADME
[31] = Time dependent inhibition of CYP in human liver microsomes by HPLC-MS analysis; assay type: ADME
[32] = Reversible inhibition of CYP in human liver microsomes by mass spectrophotometric analysis; assay type: ADME
[33] = Oral bioavailability in Sprague-Dawley rat at 1 mg/kg; assay type: ADME, organism-based; settings: in vivo
[34] = target: TAK1/TAB1 (Homo sapiens) (UniProt Q15750+O43318); experiment: Inhibition of TAK1/TAB1 (unknown origin) at 0.1 uM relative to control; assay type: protein-complex assay
[35] = target: MDR1 (P-gp, ABCB1) (Homo sapiens, UniProt P08183); experiment: Activity at human MDR1 transfected in MDCK cells assessed as efflux ratio of apparent permeability from basolateral to apical side over apical to basolateral side at 5 uM; assay type: ADME, cell-based
[36] = target: T3, Cytochrome P450 1A2; experiment: Time dependent inhibition of CYP1A2 in human liver microsomes using phenacetin as substrate by HPLC-MS analysis; assay type: ADME

Chain of Ribosomal protein S6 kinase alpha-3 (Homo sapiens) (P51812 whole entry): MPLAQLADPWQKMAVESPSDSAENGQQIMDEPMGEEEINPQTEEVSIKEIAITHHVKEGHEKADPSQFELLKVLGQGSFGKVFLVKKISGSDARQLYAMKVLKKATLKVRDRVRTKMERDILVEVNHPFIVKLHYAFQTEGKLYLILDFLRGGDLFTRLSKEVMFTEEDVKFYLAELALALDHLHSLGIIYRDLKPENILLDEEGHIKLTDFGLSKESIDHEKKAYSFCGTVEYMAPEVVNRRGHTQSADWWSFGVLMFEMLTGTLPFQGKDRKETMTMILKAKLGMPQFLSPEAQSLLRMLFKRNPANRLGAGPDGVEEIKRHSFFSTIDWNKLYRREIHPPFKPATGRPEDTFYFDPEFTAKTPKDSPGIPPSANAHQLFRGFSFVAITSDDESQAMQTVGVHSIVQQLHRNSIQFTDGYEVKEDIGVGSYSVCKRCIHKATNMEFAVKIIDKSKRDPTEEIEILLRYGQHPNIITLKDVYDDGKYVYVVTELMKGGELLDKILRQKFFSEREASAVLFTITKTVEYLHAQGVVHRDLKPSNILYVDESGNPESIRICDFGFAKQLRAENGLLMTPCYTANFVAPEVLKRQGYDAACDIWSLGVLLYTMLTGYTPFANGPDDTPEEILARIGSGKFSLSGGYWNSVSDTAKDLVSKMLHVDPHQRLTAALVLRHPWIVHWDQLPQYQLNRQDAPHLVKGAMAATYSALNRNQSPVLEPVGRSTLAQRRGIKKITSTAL

Compound | CLhep predicted at 1 µM [1] [mL/min/kg] | half-life [3] [h] | IC50 [4] [nM] | inhibition [4] | CL free [5] [mL/min/kg] | clearance [7] [mL/min/kg] | Ki [14] [nM] | bioavailability [15] [%] | clearance [17] [mL/min/kg] | Kp uu [18] | IC50 [20] [nM] | Activity [21] | Activity [22] | CLhep predicted at 1 µM [23] [mL/min/kg] | Activity [24] | fraction unbound at 4 h, 5 µM [25] | CL free [26] [mL/min/kg] | Ratio Ki [27] | inhibition (INH) [32] | also measured
CNc1nc(Nc2cn(C(C)(C)C#N)nc2C)ncc1C(F)(F)F [DNL-201] | 3 | 2.2 | 3 | Dose-dependent effect | 100 | 44 | 0.7 | 35 | 19.7 | 0.6 | 3 | Active | Active | 25 | Active | 0.197 | 210 |  |  | inhibition [2]: 52%; Ki [6]: 150 nM; inhibition [8]: 62%; Drug metabolism [9]: Not Active; inhibition [10]: 51%; Drug metabolism [11]: Not Active; inhibition [12]: 68%; solubility thermodynamic [13]: 100 µg/mL (≈ 295 µM); bioavailability [16]: 88%; IC50 [19]: 700 nM
CNc1nc(Nc2cnn(CC(C)(C)O)c2Cl)ncc1C(F)(F)F |  |  |  |  |  |  |  |  |  |  |  |  |  |  |  |  |  | > 150 |  | bioavailability [28]: 5%
CNc1nc(Nc2cnn([C@H]3CCN(C4COC4)C[C@@H]3F)c2Cl)ncc1C(F)(F)F (relative stereo) | 1 | 4 | 20 | Dose-dependent effect | 43 | 26 | 2 | 74 | 7.8 | 0.51 | 18.7 | Not Active | Not Active | 21 | Not Active | 0.179 | 261 |  | Not Active | Drug metabolism [29]: Not Active; Drug metabolism [30]: Not Active; inhibition (INH) [31]: Not Active; bioavailability [33]: 90%; inhibition [34]: 54%
CNc1nc(Nc2cnn(C3COC3)c2C)ncc1C(F)(F)F | 2 |  |  |  |  | 56 | 2 |  |  | 0.3 | 29 |  |  | 17 |  |  | 115 | > 150 | Not Active | efflux ratio at 5 µM [35]: 1.4; IC50 [36]: 2000 nM
